Laboratory results from patent US8183380B2, “2-aminoquinolines” (Hoffmann-La Roche Inc., priority 2008, dated 2012).

Target: T1, recombinant human 5-HT5A receptor (Homo sapiens, UniProt P47898)
T1 construct: expressed in transfected cells; host or cells: HEK-EBNA (Human Embryonic Kidney-EBNA) cells, transient cDNA expression; membranes
Test: [3H]LSD radioligand binding assay
Conditions: [3H]LSD (approximately 1 nM); membranes from transiently expressed 5-HT5A receptors in HEK-EBNA cells; Ki from IC50 by Cheng-Prussoff equation
Experimental: A [^3H]LSD radioligand binding assay was used to determine the affinity of the compounds for the recombinant human 5-HT5A receptor, in membranes from transiently (cDNA) expressed 5-HT5A receptors in Human Embryonic Kidney-EBNA (HEK-EBNA) cells. Assay buffer consisted of Tris (50 mM) buffer containing 1 mM EGTA, 10 mM MgCl2 (pH 7.4) and 10 μM pargyline. The binding assay was carried out in 96-well-plates in the presence of [^3H]LSD (approximately 1 nM), approximately 2 μg/well of membrane protein, and 0.5 mg of Ysi-poly-1-lysine SPA beads in a final volume of 200 μl of buffer. Non-specific binding was defined using methiothepin 2 μM. Compounds were tested at 10 concentrations. All assays were conducted in duplicate and repeated at least two times. Assay plates were incubated for 120 min at room temperature before centrifugation. Bound ligand was determined using a Packard Topcount scintillation counter. IC50 values were calculated using a non-linear curve fitting program and Ki values calculated using the Cheng-Prussoff equation.

T1 sequence (P47898 whole entry): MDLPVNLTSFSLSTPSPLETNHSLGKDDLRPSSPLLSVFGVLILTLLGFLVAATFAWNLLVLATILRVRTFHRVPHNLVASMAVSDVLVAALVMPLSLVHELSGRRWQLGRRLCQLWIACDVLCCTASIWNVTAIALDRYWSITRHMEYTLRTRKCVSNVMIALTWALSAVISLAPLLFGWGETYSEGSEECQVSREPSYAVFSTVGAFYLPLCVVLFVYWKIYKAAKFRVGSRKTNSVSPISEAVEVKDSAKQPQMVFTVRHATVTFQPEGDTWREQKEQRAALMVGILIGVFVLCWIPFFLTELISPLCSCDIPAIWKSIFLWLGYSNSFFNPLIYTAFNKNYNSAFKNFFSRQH

| SMILES | Ki [nM] |
| --- | --- |
| COc1cccc2c1C(Nc1ccc3cc(NC(=O)NC(C)C)ccc3n1)CCC2 (racemic) [Example 15, rac-1-Isopropyl-3-[2-(8-methoxy-1,2,3,4-tetrahydro-naphthalen-1-ylamino)-quinolin-6-yl]-urea] | 7.7 |
| CN1CCC(NC(=O)Nc2ccc3nc(NC4COc5ccccc54)ccc3c2)CC1 (racemic) [Example 35, rac-1-[2-(2,3-Dihydro-benzofuran-3-ylamino)-quinolin-6-yl]-3-(1-methyl-piperidin-4-yl)-urea] | 9.6 |
| COc1cccc2c1C(Nc1ccc3cc(NC(=O)NC4CCN(C)CC4)ccc3n1)CC2 (racemic) [Example 40, rac-1-[2-(7-Methoxy-indan-1-ylamino)-quinolin-6-yl]-3-(1-methyl-piperidin-4-yl)-urea] | 2.2 |
| COCCN1CCC(NC(=O)Nc2ccc3nc(NC4CCc5cccc(OC)c54)ccc3c2)CC1 (racemic) [Example 45, rac-1-[1-(2-Methoxy-ethyl)-piperidin-4-yl]-3-[2-(7-methoxy-indan-1-ylamino)-quinolin-6-yl]-urea] | 3 |
| COc1cccc2c1C(Nc1ccc3cc(NC(=O)NC4CC5CCCC(C4)N5C)ccc3n1)CC2 (racemic) [Example 50, rac-1-[2-(7-Methoxy-indan-1-ylamino)-quinolin-6-yl]-(9-methyl-9-aza-bicyclo[3.3.1]non-3-yl)-urea] | 5.2 |
| COc1cccc2c1C(Nc1ccc3cc(NC(=O)NC4CCN(CCSC)CC4)ccc3n1)CC2 (racemic) [Example 51, rac-1-[2-(7-Methoxy-indan-1-ylamino)-quinolin-6-yl]-3-[1-(2-methylsulfanyl-ethyl)-piperidin-4-yl]-urea] | 3.9 |
| COc1cccc2c1C(Nc1ccc3cc(NC(=O)NC4CCN(C5CC5)CC4)ccc3n1)CCC2 (racemic) [Example 55, rac-1-(1-Cyclopropyl-piperidin-4-yl)-3-[2-(8-methoxy-1,2,3,4-tetrahydro-naphthalen-1-ylamino)-quinolin-6-yl]-urea] | 9.7 |
| COc1cccc2c1C(Nc1ccc3cc(NS(=O)(=O)N(C)C)ccc3n1)CC2 (racemic) [Example 68, rac-N′-{2-[(7-methoxy-2,3-dihydro-1H-inden-1-yl)amino]quinolin-6-yl}-N,N-dimethylsulfamide] | 2.5 |
| COc1ccc(C)c2c1C(Nc1ccc3cc(NC(=O)NC(C)C)ccc3n1)CC2 (racemic) [Example 93, rac-1-Isopropyl-3-[2-(7-methoxy-4-methyl-indan-1-ylamino)-quinolin-6-yl]-urea] | 8.7 |
| CC(C)N1CCC(NC(=O)Nc2ccc3nc(NC4CCc5cc(F)ccc54)ccc3c2)CC1 (racemic) [Example 115, rac-1-[2-(5-Fluoro-indan-1-ylamino)-quinolin-6-yl]-3-(1-isopropyl-piperidin-4-yl)-urea] | 4 |
| CC(C)NC(=O)Nc1ccc2nc(NC3CCc4cccc(F)c43)ccc2c1 (racemic) [Example 146, rac-1-[2-(7-Fluoro-indan-1-ylamino)-quinolin-6-yl]-3-isopropyl-urea] | 6.1 |

Other lines, results leading:

| Ki [nM] | SMILES |
| --- | --- |
| 1.5 | COc1cccc2c1C(Nc1ccc3cc(NC(=O)NC(C)C)ccc3n1)CC2 (racemic) [Example 12, rac-1-Isopropyl-3-[2-(7-methoxy-indan-1-ylamino)-quinolin-6-yl]-urea] |
| 3 | COc1cccc2c1C(Nc1ccc3cc(NC(=O)NC4CCN(C(C)C)CC4)ccc3n1)CC2 (racemic) [Example 44, rac-1-(1-Isopropyl-piperidin-4-yl)-3-[2-(7-methoxy-indan-1-ylamino)-quinolin-6-yl]-urea] |
| 2.7 | COc1cccc2c1C(Nc1ccc3cc(NC(=O)NC4CCN(CCF)CC4)ccc3n1)CC2 (racemic) [Example 46, rac-1-[1-(2-Fluoro-ethyl)-piperidin-4-yl]-3-[2-(7-methoxy-indan-1-ylamino)-quinolin-6-yl]-urea] |
| 3 | COc1cccc2c1C(Nc1ccc3cc(NC(=O)NC4CCN(CCC(F)(F)F)CC4)ccc3n1)CC2 (racemic) [Example 47, rac-1-[2-(7-Methoxy-indan-1-ylamino)-quinolin-6-yl]-3-[1-(3,3,3-trifluoro-propyl)-piperidin-4-yl]-urea] |
| 7.5 | COc1cccc2c1C(Nc1ccc3cc(NC(=O)NC4CCN(C(=O)CC(F)(F)F)CC4)ccc3n1)CC2 (racemic) [Example 52, rac-1-[2-(7-Methoxy-indan-1-ylamino)-quinolin-6-yl]-3-[1-(3,3,3-trifluoro-propionyl)-piperidin-4-yl]-urea] |
| 3.1 | COc1cccc2c1C(Nc1ccc3cc(NC(=O)NC4CCN(C5CC5)CC4)ccc3n1)CC2 (racemic) [Example 53, rac-1-(1-Cyclopropyl-piperidin-4-yl)-3-[2-(7-methoxy-indan-1-ylamino)-quinolin-6-yl]-urea] |
| 5.8 | COc1cccc2c1C(Nc1ccc3cc(NC(=O)NC4CCN(C)CC4)ccc3n1)CCC2 (racemic) [Example 57, rac-1-[2-(8-Methoxy-1,2,3,4-tetrahydro-naphthalen-1-ylamino)-quinolin-6-yl]-3-(1-methyl-piperidin-4-yl)-urea] |
| 5.3 | COCCN1CCC(NC(=O)Nc2ccc3nc(NC4CCCc5cccc(OC)c54)ccc3c2)CC1 (racemic) [Example 58, rac-1-[1-(2-Methoxy-ethyl)-piperidin-4-yl]-3-[2-(8-methoxy-1,2,3,4-tetrahydro-naphthalen-1-ylamino)-quinolin-6-yl]-urea] |
| 5.9 | COc1cccc2c1C(Nc1ccc3cc(NC(=O)NC4CCN(CCF)CC4)ccc3n1)CCC2 (racemic) [Example 59, rac-1-[1-(2-Fluoro-ethyl)-piperidin-4-yl]-3-[2-(8-methoxy-1,2,3,4-tetrahydro-naphthalen-1-ylamino)-quinolin-6-yl]-urea] |
| 4.4 | CC(C)NC(=O)Nc1ccc2nc(NC3CCc4cc(F)ccc43)ccc2c1 (racemic) [Example 107, rac-1-[2-(5-Fluoro-indan-1-ylamino)-quinolin-6-yl]-3-isopropyl-urea] |
| 3.4 | COc1cc(C)cc2c1C(Nc1ccc3cc(NC(=O)NC(C)C)ccc3n1)CC2 (racemic) [Example 130, rac-1-Isopropyl-3-[2-(7-methoxy-5-methyl-indan-1-ylamino)-quinolin-6-yl]-urea] |
| 2.9 | COc1cc(C)cc2c1C(Nc1ccc3cc(NC(=O)NC4CCN(C)CC4)ccc3n1)CC2 (racemic) [Example 131, rac-1-[2-(7-Methoxy-5-methyl-indan-1-ylamino)-quinolin-6-yl]-3-(1-methyl-piperidin-4-yl)-urea] |
| 4.4 | COc1cccc2c1C(Nc1ccc3cc(NC(=O)CN4CCN(C)CC4)ccc3n1)CC2 (racemic) [Example 139, rac-N-[2-(7-Methoxy-indan-1-ylamino)-quinolin-6-yl]-2-(4-methyl-piperazin-1-yl)-acetamide] |
| 2.2 | COc1cccc2c1C(Nc1ccc3cc(NC(=O)C4CC4)ccc3n1)CC2 (racemic) [Example 140, rac-Cyclopropanecarboxylic acid [2-(7-methoxy-indan-1-ylamino)-quinolin-6-yl]-amide] |
| 8.6 | O=C(Nc1ccc2nc(NC3CCc4cc(F)ccc43)ccc2c1)C1CC1 (racemic) [Example 141, rac-Cyclopropanecarboxylic acid [2-(5-fluoro-indan-1-ylamino)-quinolin-6-yl]-amide] |
